Tests used:
Assay in all cases: Test B flooded paddy test
Type in all cases: in vivo
[1] = test system: barnyardgrass (Echinochloa crus-galli); conditions: Flood
In short: (§1)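 2-leaf plants; pots flooded 3 cm above soil; compound added to paddy water; depth maintained. Greenhouse 13–15 d. Visual rating vs controls, 0 (no effect) to 100 (complete control); dash = no result.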

[2] = test system: ducksalad (Heteranthera limosa); conditions: Flood, scale 0 to 100
In short: as §1

[3] = test system: rice (Oryza sativa); conditions: Flood, scale 0 to 100
In short: as §1

[4] = test system: umbrella sedge (Cyperus difformis); conditions: Flood, scale 0 to 100
In short: as §1

[5] = 250 g ai/ha, scale 0 to 100 (0 no effect, 100 complete control)

| Compound | Plant response rating, Barnyardgrass ([1]; 31 g ai/ha, scale 0 to 100) | Plant response rating, Barnyardgrass ([1]; 62 g ai/ha, scale 0 to 100) | Plant response rating, Barnyardgrass ([1]; 125 g ai/ha, scale 0 to 100) | Plant response rating, Barnyardgrass [1, 5] | Plant response rating, Ducksalad ([2]; 31 g ai/ha) | Plant response rating, Ducksalad ([2]; 62 g ai/ha) | Plant response rating, Ducksalad ([2]; 125 g ai/ha) | Plant response rating, Ducksalad ([2]; 250 g ai/ha) | Plant response rating, Rice ([3]; 31 g ai/ha) | Plant response rating, Rice ([3]; 62 g ai/ha) | Plant response rating, Rice ([3]; 125 g ai/ha) | Plant response rating, Rice ([3]; 250 g ai/ha) | Plant response rating, Sedge, Umbrella ([4]; 31 g ai/ha) | Plant response rating, Sedge, Umbrella ([4]; 62 g ai/ha) | Plant response rating, Sedge, Umbrella ([4]; 125 g ai/ha) | Plant response rating, Sedge, Umbrella ([4]; 250 g ai/ha) |
| --- | --- | --- | --- | --- | --- | --- | --- | --- | --- | --- | --- | --- | --- | --- | --- | --- |
| COCCn1c(-c2cc(F)cc(F)c2)c(Cl)nc(C(=O)C2=C(O)CCCC2=O)c1=O [Compound 6, 5-chloro-6-(3,5-difluorophenyl)-3-[(2-hydroxy-6-oxo-1-cyclohexen-1-yl)carbonyl]-1-(2-methoxyethyl)-2(1H)-pyrazinone] | 0 | 0 | 0 | 50 | 30 | 50 | 70 | 80 | 0 | 0 | 0 | 15 | 60 | 70 | 85 | 90 |
| COCCn1c(-c2cccc(F)c2)c(Cl)nc(C(=O)C2=C(O)CCCC2=O)c1=O [Compound 4, 5-chloro-6-(3-fluorophenyl)-3-[(2-hydroxy-6-oxo-1-cyclohexen-1-yl)carbonyl]-1-(2-methoxyethyl)-2(1H)pyrazinone] | 0 | 0 | 0 | 30 | 60 | 65 | 75 | 85 | 0 | 0 | 0 | 30 | 75 | 75 | 75 | 80 |
